Columns and labels:
[1] = test system: IL6 production in RAW 264.7 macrophage cell line; experiment: Mouse IL6 quantification assay (LPS-stimulated macrophages, ELISA); type: cell-based; settings: RAW264.7, RAW 264.7 murine leukemia virus transformed macrophage cell lines, LPS stimulation, read-out: IL-6 % Inhibition at 30 μM
[2] = test system: TNFα production in RAW 264.7 macrophage cell line; experiment: Mouse TNF alpha quantification assay (LPS-stimulated macrophages, ELISA); type: cell-based; settings: RAW264.7, RAW 264.7 murine leukemia virus transformed macrophage cell lines, LPS stimulation, read-out: TNF-α % Inhibition at 30 μM

SMILES: Cc1cnc(-c2ccccn2)nc1NC(=O)Cc1ccc2cnccc2c1 [drawing 2249]
- inhibition at 30 µM [1]: 76 to 100%
- inhibition at 30 µM [2]: 0%

SMILES: O=C(Nc1nnc(-c2ccccn2)[nH]1)c1ccc(=O)n(CCOc2ccccc2)n1 [drawing 1999]
- inhibition at 30 µM [1]: 26 to 50%
- inhibition at 30 µM [2]: 0%

SMILES: COc1ccccc1C1CN(C(=O)c2csc3c(O)nc(-c4ccccn4)nc23)CCN1 (stereo not drawn) [drawing 2196]
- inhibition at 30 µM [1]: 26 to 50%
- inhibition at 30 µM [2]: 0%

SMILES: COc1cnc(C2CCCN2)nc1O (stereo not drawn) [drawing 2308]
- inhibition at 30 µM [1]: 1 to 25%
- inhibition at 30 µM [2]: 1 to 25%

SMILES: COC(=O)c1cccc(CN2CCC(CSc3ccccc3)C2)c1C#N (stereo not drawn) [drawing 2046]
- inhibition at 30 µM [1]: 26 to 50%
- inhibition at 30 µM [2]: 0%

SMILES: Nc1nc(-c2ccccn2)nc2c(Br)csc12 [drawing 2284]
- inhibition at 30 µM [1]: 26 to 50%
- inhibition at 30 µM [2]: 0%

SMILES: Cn1cc(-c2nc(C(=O)Nc3nnc(-c4ccccn4)[nH]3)cs2)cn1 [drawing 1944]
- inhibition at 30 µM [1]: 51 to 75%
- inhibition at 30 µM [2]: 1 to 25%

SMILES: CSc1nc(C2CC2)cc(C(=O)NCCc2ccc(S(=O)(=O)NC(=O)c3cc(C4CC4)nc(SC)c3C#N)cc2)c1C#N [drawing 2067]
- inhibition at 30 µM [1]: 1 to 25%
- inhibition at 30 µM [2]: 26 to 50%

SMILES: Cc1sc2c(N)nc(-c3ccccn3)nc2c1-c1ccccc1 [drawing 2230]
- inhibition at 30 µM [1]: 51 to 75%
- inhibition at 30 µM [2]: 1 to 25%

SMILES: CC(C)Oc1cnc(-c2ccccn2)nc1O [drawing 2319]
- inhibition at 30 µM [1]: 76 to 100%
- inhibition at 30 µM [2]: 1 to 25%

SMILES: COC(=O)c1sc2c(O)nc(-c3ccccn3)nc2c1C [drawing 2314]
- inhibition at 30 µM [1]: 1 to 25%
- inhibition at 30 µM [2]: 0%

SMILES: COc1nc(-c2ccccn2)nc(Oc2cccc(C(F)(F)F)c2)c1O [drawing 2392]
- inhibition at 30 µM [1]: 0%
- inhibition at 30 µM [2]: 1 to 25%

SMILES: CC(C)(C(=O)Nc1ccnc(-c2ccccn2)n1)c1ccc(C#N)cc1 [drawing 2177]
- inhibition at 30 µM [1]: 1 to 25%
- inhibition at 30 µM [2]: 0%

SMILES: Oc1nc(-c2ccccn2)nc2c(-c3cc(F)cc(F)c3)csc12 [drawing 2292]
- inhibition at 30 µM [1]: 76 to 100%
- inhibition at 30 µM [2]: 51 to 75%

SMILES: Cc1nc(-c2ccccn2)nc(O)c1CCC(=O)NCC1COc2ccccc2O1 (stereo not drawn) [drawing 2035]
- inhibition at 30 µM [1]: 0%
- inhibition at 30 µM [2]: 1 to 25%

SMILES: Cc1nnc(C(Nc2nc(-c3ccccn3)nc3scc(-c4ccccc4)c23)c2ccccc2)n1C (stereo not drawn) [drawing 2133]
- inhibition at 30 µM [1]: 76 to 100%
- inhibition at 30 µM [2]: 76 to 100%

SMILES: O=C(NCCc1ccc(O)c(O)c1)c1csc2nc(-c3ccccn3)nc(N3CCOCC3)c12 [drawing 2204]
- inhibition at 30 µM [1]: 1 to 25%
- inhibition at 30 µM [2]: 0%

SMILES: CC(O)CNc1nc(-c2nccn2C)nc2sc(-c3ccccc3)c(-c3ccccc3)c12 (stereo not drawn) [drawing 2396]
- inhibition at 30 µM [1]: 26 to 50%
- inhibition at 30 µM [2]: 0%

SMILES: CS(=O)(=O)CCCC(=O)N1CCCc2c(O)nc(-c3ccccn3)nc21 [drawing 2082]
- inhibition at 30 µM [1]: 26 to 50%
- inhibition at 30 µM [2]: 0%

SMILES: CC(Oc1cccc(C#N)c1)C(=O)Nc1nnc(-c2ccccn2)[nH]1 (stereo not drawn) [drawing 1967]
- inhibition at 30 µM [1]: 1 to 25%
- inhibition at 30 µM [2]: 0%

SMILES: CC(C)c1noc(CCC(=O)Nc2nnc(-c3ccccn3)[nH]2)n1 [drawing 1952]
- inhibition at 30 µM [1]: 1 to 25%
- inhibition at 30 µM [2]: 0%

SMILES: CC(c1ccccc1)N1CCN(C(=O)c2csc3c(O)nc(-c4ccccn4)nc23)CC1 (stereo not drawn) [drawing 2215]
- inhibition at 30 µM [1]: 51 to 75%
- inhibition at 30 µM [2]: 0%

SMILES: CC(C)COc1ccc(-c2c(-c3ccccc3)sc3c(O)nc(-c4nccn4C)nc23)cn1 [drawing 2414]
- inhibition at 30 µM [1]: 51 to 75%
- inhibition at 30 µM [2]: 1 to 25%

SMILES: Oc1nc(-c2ccccn2)nc2c(-c3ccc4c(c3)OCO4)csc12 [drawing 2271]
- inhibition at 30 µM [1]: 76 to 100%
- inhibition at 30 µM [2]: 76 to 100%

SMILES: O=C(COc1ccccc1)Nc1nnc(-c2ccccn2)[nH]1 [drawing 1993]
- inhibition at 30 µM [1]: 1 to 25%
- inhibition at 30 µM [2]: 0%

SMILES: CC(C)COc1ccc(-c2csc3c(O)nc(-c4ccccn4)nc23)cn1 [drawing 2269]
- inhibition at 30 µM [1]: 76 to 100%
- inhibition at 30 µM [2]: 51 to 75%

SMILES: CN(C)Cc1ccc(-c2csc3c(O)nc(-c4ccccn4)nc23)cc1F [drawing 2238]
- inhibition at 30 µM [1]: 76 to 100%
- inhibition at 30 µM [2]: 51 to 75%

SMILES: COc1ccc2c(c1)CCC2C(=O)Nc1ccnc(-c2ccccn2)n1 (stereo not drawn) [drawing 2207]
- inhibition at 30 µM [1]: 26 to 50%
- inhibition at 30 µM [2]: 0%

SMILES: Oc1cccc(-c2csc3c(O)nc(-c4ccccn4)nc23)n1 [drawing 2320]
- inhibition at 30 µM [1]: 51 to 75%
- inhibition at 30 µM [2]: 0%

SMILES: COc1cccc(C2CN(C(=O)c3csc4c(O)nc(-c5ccccn5)nc34)CCN2)c1 (stereo not drawn) [drawing 2197]
- inhibition at 30 µM [1]: 76 to 100%
- inhibition at 30 µM [2]: 1 to 25%

SMILES: Oc1nc(-c2ccccn2)nc2c(-c3ccc(OC4CCCC4)cc3)csc12 [drawing 2255]
- inhibition at 30 µM [1]: 76 to 100%
- inhibition at 30 µM [2]: 0%

SMILES: COC(=O)c1nc(-c2ccccn2)nc(O)c1O [drawing 2374]
- inhibition at 30 µM [1]: 0%
- inhibition at 30 µM [2]: 0%

SMILES: CC1CN(c2ccccc2)CCN1C(=O)c1csc2c(O)nc(-c3ccccn3)nc12 (stereo not drawn) [drawing 2186]
- inhibition at 30 µM [1]: 76 to 100%
- inhibition at 30 µM [2]: 26 to 50%

Reference: patent US10940139B2, “Compounds that interact with the Ras superfamily for the treatment of cancers, inflammatory diseases, rasopathies, and fibrotic disease” (Shy Therapeutics LLC, priority 2017, dated 2021)
